Tests used:
CYP3A4 = CYP3A4 (Homo sapiens, UniProt P08684); experiment: CYP inhibition assay CYP3A4; assay type: in vitro ADME; conditions: fluorescence detection method; read-out: CYPs enzyme inhibition, IC50, CYP3A4
[1] = In vitro microsomal stability, mouse; assay type: in vitro ADME; conditions: mouse liver microsomes, 5 μM, 60 min
[2] = In vitro microsomal stability, dog; assay type: in vitro ADME; conditions: dog liver microsomes, 5 μM, 60 min
hACAT2 = molecular target: T1, hACAT2 (Homo sapiens, UniProt O75908); experiment: Enzymatic assay hACAT2; assay type: biochemical
T1 sequence (O75908 1-522): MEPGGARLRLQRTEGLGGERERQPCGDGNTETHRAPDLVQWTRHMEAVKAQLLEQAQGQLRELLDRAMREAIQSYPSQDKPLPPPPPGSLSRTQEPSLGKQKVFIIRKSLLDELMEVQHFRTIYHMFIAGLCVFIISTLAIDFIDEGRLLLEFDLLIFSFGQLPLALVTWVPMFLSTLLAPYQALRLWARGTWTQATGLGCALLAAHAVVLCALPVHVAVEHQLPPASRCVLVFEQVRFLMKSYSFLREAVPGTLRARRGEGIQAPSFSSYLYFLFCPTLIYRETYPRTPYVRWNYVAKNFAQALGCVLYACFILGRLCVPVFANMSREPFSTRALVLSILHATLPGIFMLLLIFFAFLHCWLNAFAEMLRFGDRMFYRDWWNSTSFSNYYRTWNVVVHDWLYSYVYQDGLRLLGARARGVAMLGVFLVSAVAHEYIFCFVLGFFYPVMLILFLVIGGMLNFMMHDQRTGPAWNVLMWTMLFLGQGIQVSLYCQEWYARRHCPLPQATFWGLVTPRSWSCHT
Excerpt: (§1) ACATs have sequence homology to DGAT-1 and play essential roles in cholesterol homeostasis. 17b was not explored in the enzymatic assays due to its poor pharmacokinetic profile.

[3] = In vitro microsomal stability, human; assay type: in vitro ADME; conditions: human liver microsomes, 5 μM, 60 min
CYP2C19 = CYP2C19 (Homo sapiens, UniProt P33261); experiment: CYP inhibition assay CYP2C19; assay type: in vitro ADME; conditions: fluorescence detection method; read-out: CYPs enzyme inhibition, IC50, CYP2C19
[4] = Tissue distribution in mice; assay type: in vivo; conditions: ICR mice, 30 mg/kg oral, n = 3
Description: In addition, tissue distribution of 17a was investigated. 17a was orally administered to mice at 30 mg/kg, and 2 was administrated as a positive control (Figure 5). […] Significant activity of 17a in the OLTT appeared to result from high concentration in the small intestine, even though bioavailability of 17a was not great in mice.
Figure 5. Tissue distribution of 17a in mice. 17a and 2 were orally administered to ICR mice at 30 mg/kg (n = 3). (a) AUC values of 17a and 2 in indicated tissues. […] Data represent mean value. (b) Tissue-to-plasma (T/P) ratio of 17a and 2. S.I.: small intestine, L.I.: large intestine.

CYP1A2 = molecular target: T2, CYP1A2 (Homo sapiens, UniProt P05177); experiment: CYP inhibition assay CYP1A2; assay type: in vitro ADME; conditions: fluorescence detection method; read-out: CYPs enzyme inhibition, IC50, CYP1A2
T2 sequence (P05177 1-516): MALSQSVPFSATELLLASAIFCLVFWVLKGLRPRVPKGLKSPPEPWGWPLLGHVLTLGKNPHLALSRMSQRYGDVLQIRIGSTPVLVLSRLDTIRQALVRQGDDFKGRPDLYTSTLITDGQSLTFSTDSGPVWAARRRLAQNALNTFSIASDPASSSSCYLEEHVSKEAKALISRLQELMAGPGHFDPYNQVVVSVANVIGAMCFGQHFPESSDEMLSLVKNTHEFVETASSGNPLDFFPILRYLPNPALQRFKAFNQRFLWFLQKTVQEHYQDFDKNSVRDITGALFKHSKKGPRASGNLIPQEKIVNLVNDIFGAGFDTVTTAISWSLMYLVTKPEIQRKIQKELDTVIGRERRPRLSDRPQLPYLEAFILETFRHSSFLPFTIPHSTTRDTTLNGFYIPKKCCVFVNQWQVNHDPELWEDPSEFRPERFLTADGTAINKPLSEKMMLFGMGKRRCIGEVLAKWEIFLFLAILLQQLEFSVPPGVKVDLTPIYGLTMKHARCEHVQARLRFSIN

[5] = In vitro microsomal stability, rat; assay type: in vitro ADME; conditions: rat liver microsomes, 5 μM, 60 min
hACAT1 = molecular target: T3, hACAT1 (Homo sapiens, UniProt P35610); experiment: Enzymatic assay hACAT1; assay type: biochemical
T3 sequence (P35610 1-550): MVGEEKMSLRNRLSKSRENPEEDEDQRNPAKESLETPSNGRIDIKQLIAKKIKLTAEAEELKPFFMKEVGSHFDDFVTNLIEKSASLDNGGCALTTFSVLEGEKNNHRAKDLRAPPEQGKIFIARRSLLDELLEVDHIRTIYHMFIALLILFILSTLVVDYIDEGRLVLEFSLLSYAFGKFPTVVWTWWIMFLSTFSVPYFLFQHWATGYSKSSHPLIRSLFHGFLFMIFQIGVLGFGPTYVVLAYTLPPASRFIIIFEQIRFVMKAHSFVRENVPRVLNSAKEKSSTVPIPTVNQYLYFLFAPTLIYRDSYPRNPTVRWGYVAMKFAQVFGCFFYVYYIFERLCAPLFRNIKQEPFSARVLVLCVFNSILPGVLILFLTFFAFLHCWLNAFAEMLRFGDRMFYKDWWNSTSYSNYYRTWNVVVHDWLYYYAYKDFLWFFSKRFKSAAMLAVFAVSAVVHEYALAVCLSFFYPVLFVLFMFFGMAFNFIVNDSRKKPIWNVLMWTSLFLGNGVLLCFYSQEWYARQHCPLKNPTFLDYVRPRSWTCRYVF
Excerpt: as §1

[6] = Pharmacokinetic profile in ICR mice; conditions: mouse, in vivo
[7] = Pharmacokinetic profile in rat; assay type: in vivo
[8] = Pharmacokinetic profile in dog; assay type: in vivo

Sequence of CYP3A4 (P08684 whole entry): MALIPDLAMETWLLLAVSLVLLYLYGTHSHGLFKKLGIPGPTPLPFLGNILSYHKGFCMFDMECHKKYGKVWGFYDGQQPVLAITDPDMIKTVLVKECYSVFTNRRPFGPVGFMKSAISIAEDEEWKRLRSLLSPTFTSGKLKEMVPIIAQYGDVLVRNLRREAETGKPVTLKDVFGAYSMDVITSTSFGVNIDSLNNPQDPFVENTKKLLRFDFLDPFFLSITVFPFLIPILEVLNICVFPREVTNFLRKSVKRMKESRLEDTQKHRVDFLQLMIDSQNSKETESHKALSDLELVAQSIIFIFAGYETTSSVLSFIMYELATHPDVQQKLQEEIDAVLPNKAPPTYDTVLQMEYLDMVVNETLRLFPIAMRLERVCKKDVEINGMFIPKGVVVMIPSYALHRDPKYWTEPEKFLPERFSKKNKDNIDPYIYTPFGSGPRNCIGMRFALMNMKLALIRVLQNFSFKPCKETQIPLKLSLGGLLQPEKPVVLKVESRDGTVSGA
Sequence of CYP2C19 (P33261 whole entry): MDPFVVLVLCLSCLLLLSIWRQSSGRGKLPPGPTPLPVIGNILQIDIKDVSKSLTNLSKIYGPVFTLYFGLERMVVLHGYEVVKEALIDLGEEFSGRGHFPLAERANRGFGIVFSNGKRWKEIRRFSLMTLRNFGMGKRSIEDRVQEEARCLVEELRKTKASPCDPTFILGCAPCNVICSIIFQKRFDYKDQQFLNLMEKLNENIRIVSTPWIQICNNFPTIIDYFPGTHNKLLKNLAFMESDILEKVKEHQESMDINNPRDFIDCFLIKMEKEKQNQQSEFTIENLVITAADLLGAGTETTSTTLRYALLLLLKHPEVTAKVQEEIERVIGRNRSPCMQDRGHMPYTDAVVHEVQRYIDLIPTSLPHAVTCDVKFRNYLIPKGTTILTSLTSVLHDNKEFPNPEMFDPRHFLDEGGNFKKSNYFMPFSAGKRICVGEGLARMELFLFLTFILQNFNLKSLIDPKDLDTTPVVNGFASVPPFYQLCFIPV

With `O=C([O-])C[C@H]1CC[C@@H](c2csc3c(-c4ccc(NC(=O)Nc5cccc(Cl)c5)cc4)ncnc32)CC1.[Na+]` [Compound 17a, Sodium cis-2–(4–(4-(4-(3–(3-chlorophenyl)ureido)phenyl)thieno[3,2-d]pyrimidin-7-yl)cyclohexyl)acetate] the IC50 (CYP3A4) was 16.2 µM, the “Microsomal stability, remaining percent” value [1] was 82% and the “Microsomal stability, remaining percent” value [2] was 82%. For the same compound, the IC50 (hACAT2) was > 10 µM, the “Microsomal stability, remaining percent” value [3] was 94% and the IC50 (CYP2C19) was > 20 µM. For the same compound, the “Tissue distribution (concentration levels in tissues)” value [4] was “in the liver and small intestine were much higher than in other tissues”, the IC50 (CYP1A2) was 10.6 µM and the “Microsomal stability, remaining percent” value [5] was 87%. For the same compound, the IC50 (hACAT1) was > 10 µM, the bioavailability ([6]; oral 10 mg/kg vs iv 3 mg/kg) was 19% and the Cmax ([6]; oral 10 mg/kg, n = 3) was 0.479 µg/mL. The half-life ([6]; oral 10 mg/kg, n = 3) was 1.2 h, the AUC ([6]; oral 10 mg/kg, n = 3, read-out: AUC 0∼24) was 0.861 µg·h/mL and the Cl ([7]; 3 mg/kg iv, 10 mg/kg po) was 0.5 ± 0.2 L/h/kg. For the same compound, the half-life ([7]; in vivo, 10 mg/kg po) was 3 ± 0.4 h, the bioavailability ([7]; in vivo, 10 mg/kg po vs 3 mg/kg iv) was 30% and the AUC ([7]; in vivo, 10 mg/kg po, read-out: AUC 0 ∼ 24) was 18.6 µg·h/mL. It also gave a Cl ([8]; 1 mg/kg iv, 3 mg/kg po) of 0.4 ± 0.1 L/h/kg, a half-life ([8]; in vivo, 3 mg/kg po) of 3.6 ± 0.7 h and a bioavailability ([8]; in vivo, 3 mg/kg po vs 1 mg/kg iv) of 53%. It also gave an AUC ([8]; in vivo, 3 mg/kg po, read-out: AUC 0 ∼ 24) of 8.24 ± 2.3 µg·h/mL.

From article PMC6882492, “Synthesis and biological evaluation of novel thienopyrimidine derivatives as diacylglycerol acyltransferase 1 (DGAT-1) inhibitors” (Journal of Enzyme Inhibition and Medicinal Chemistry, 2019)
